Molecules are shown by their SMILES. In brackets after ≈: the same amount, converted by molar mass.

For the series the following is noted: buffer; pH 7.4; 200.0 µM.
`CCOc1ccccc1NC(=O)c1ccc([N+](=O)[O-])cc1` displayed a kinetic solubility of 2.7 µg/mL (≈ 9.43 µM). Consider `Fc1cccc(NC(=S)Nc2cccc3ccccc23)c1`, for which the kinetic solubility was 19.6 µg/mL (≈ 66.1 µM). For `O=C(NC1CCS(=O)(=O)C1)c1ccc(Br)o1` (stereo not given), the kinetic solubility turned out to be 32.2 µg/mL (≈ 104 µM). As to `O=C(NCCOc1ccc(Cl)cc1)C(=O)NCC1CCCO1` (stereo not given), the kinetic solubility came to 33.6 µg/mL (≈ 103 µM).

With `O=C(c1cccc(S(=O)(=O)N2CCc3ccccc32)c1)N1CCOCC1`, the kinetic solubility is 54.8 µg/mL (≈ 147 µM). `Nc1ccc2c(c1)OC1(CCCCC1)O2` returned a kinetic solubility of 19.1 µg/mL (≈ 93.1 µM). The figure for `Brc1ccc(-n2cnc(-c3ccccc3)c2)cc1` is 1 µg/mL (≈ 3.34 µM); for `CCOc1ccccc1C(=O)NCC(=O)OCC(=O)N1CCCC1` it is more than 50.2 µg/mL. The figure for `Cc1cccc2nc(C(=O)Nc3cccc(C(=O)NC4CC4)c3)cn12` is 5.5 µg/mL (≈ 16.4 µM). Turning to `CC1Cc2ccccc2N1S(=O)(=O)c1cnc(Cl)c(Br)c1` (stereo not given), the kinetic solubility is less than 0.4 µg/mL. `CCOC(=O)Cc1csc(NC(=O)CSc2nccn2C)n1` had a solubility (kinetic) of more than 51.1 µg/mL. `CCOC(=O)c1sc(SC)c2c1CCC/C2=N/OC` showed a solubility (kinetic) of 0.7 µg/mL (≈ 2.34 µM). In turn, `CCC1CN(C(=O)NCc2ccc(C)cc2)c2ccccc2O1` (stereo not given) came in with a solubility (kinetic) of 20.8 µg/mL (≈ 67 µM).

Compound `Cc1[nH]c2ccc(C(=O)NCc3ccccn3)cc2c1C` registered a solubility (kinetic) of more than 41.9 µg/mL. `O=C(O)c1ccc(S(=O)(=O)N2CCCc3ccccc32)cc1`: the solubility (kinetic) is more than 47.6 µg/mL. Regarding `CCC(=O)c1ccc(OCC(=O)NC2CCN(Cc3ccccc3)CC2)cc1`, the kinetic solubility was more than 57.1 µg/mL.

In turn, `Cc1cc(Cl)c2oc(C(=O)N3CCC(O)(c4ccccc4)CC3)c(C)c2c1` returned a solubility (kinetic) of 2.2 µg/mL (≈ 5.73 µM).

`CC(C)(C)C(=O)NC(=S)N1CCc2ccccc21` registered a kinetic solubility of 31 µg/mL (≈ 118 µM). Against the preceding compound, the solubility kinetic is about 14-fold higher. In turn, `CCOC(=O)c1c(NC(=O)C2CC2)sc2c1CC(C)(C)OC2` showed a solubility (kinetic) of less than 0.7 µg/mL.

Take `O=C(O)CN1C(=O)C(=O)N(Cc2ccccc2F)C1=O`: the solubility (kinetic) was more than 42 µg/mL.

In turn, `CN1CCC(N(C)C(=O)CNC(=O)c2ccc(C(C)(C)C)cc2)CC1` came in with a kinetic solubility of 39.5 µg/mL (≈ 114 µM).

On to `CC(=O)Nc1ccc(NC=C(C#N)C#N)cc1`, for which the solubility (kinetic) stood at 4.2 µg/mL (≈ 18.6 µM). The compound `O=C(COC(=O)/C=C/c1ccccc1Cl)NCC1CCCO1` (stereo not given) yielded a solubility (kinetic) of 31.9 µg/mL (≈ 98.5 µM). In turn, `O=C(NCCc1ccccc1F)c1cccc2cccnc12` yielded a kinetic solubility of 31.4 µg/mL (≈ 107 µM). In turn, `Cc1cc(C)nc(NC(=O)c2ccc(Br)cc2)n1` showed a kinetic solubility of more than 45.9 µg/mL. As for `Br.CCSC(=Nc1ccccc1)N1CCOCC1`, the figure is 43.9 µg/mL; as for `OCC1CCCCN1C(=S)Nc1ccc(Cl)cc1Cl` (stereo not given), more than 47.9 µg/mL. The compound `O=C(COC(=O)c1cccc(Br)c1)NCc1ccco1` showed a kinetic solubility of 19 µg/mL (≈ 56.2 µM). `CC(C)C(=O)Nc1nc(-c2ccc([N+](=O)[O-])cc2)cs1` displayed a kinetic solubility of 2.6 µg/mL (≈ 8.92 µM). Turning to `COc1ccc(/C=C/C(=O)O)cc1S(=O)(=O)N1CCC(C)CC1`, the solubility (kinetic) was more than 50.9 µg/mL. The figure for `S=C(NCCc1ccccc1)N1CCN(C2CCCCC2)CC1` is 16.6 µg/mL (≈ 50.1 µM); for `Cc1ccc(OCC(=O)Nc2ccc3c(c2)CCC3)c([N+](=O)[O-])n1` it is 2.1 µg/mL (≈ 6.42 µM). The compound `Cc1ccc(NC(=O)C2C3CCCCC32)cc1[N+](=O)[O-]` (stereo not given) showed a kinetic solubility of 0.5 µg/mL (≈ 1.82 µM). Turning to `NC(=O)COC(=O)c1ccc2noc(-c3ccccc3)c2c1`, the kinetic solubility is 26.1 µg/mL (≈ 88.1 µM). With `COC(=O)CSc1[nH]c2ccc(F)cc2c1[N+](=O)[O-]`, the solubility (kinetic) turned out to be 41.8 µg/mL (≈ 147 µM). This solubility kinetic lies about 1.6-fold higher than the previous one.

`O=C(Nc1ccccc1)Nc1nc(-c2ccccc2)cs1` had a solubility (kinetic) of less than 0.2 µg/mL. Compound `Cc1ncc([N+](=O)[O-])n1S(=O)(=O)c1cc(Cl)ccc1Cl` yielded a solubility (kinetic) of 40.3 µg/mL (≈ 120 µM).

Consider `COc1ccc(CCNC(=O)c2cc(C)oc2C)cc1OC`, for which the solubility (kinetic) was 42 µg/mL (≈ 138 µM). Turning to `c1ccc(CCNC2=NCCS2)cc1`, the kinetic solubility is more than 30.9 µg/mL. For `Cc1ccc(C)c(OCCCC(=O)NC2CCCCC2)c1`, the kinetic solubility is 3 µg/mL (≈ 10.4 µM). For `Cc1noc(C)c1C(=O)OCC(=O)NCCc1ccc(S(N)(=O)=O)cc1`, the kinetic solubility was more than 57.2 µg/mL. The compound `O=C(COc1ccccc1)OCC(=O)c1c[nH]c2ccccc12` displayed a solubility (kinetic) of 8.9 µg/mL (≈ 28.8 µM). The compound `Cc1cc[n+](Cc2ccc([N+](=O)[O-])cc2)cc1.[Br-]` yielded a solubility (kinetic) of more than 46.4 µg/mL. As for `CCOc1ccc(-c2nc(N)ncc2-c2ccccc2OC)c(O)c1`, the kinetic solubility came to 1.3 µg/mL (≈ 3.85 µM).

As to `COC(=O)c1sc(-c2ccccc2)cc1NC(C)=O`, the solubility (kinetic) was determined as 1.7 µg/mL (≈ 6.17 µM).

Consider `Cc1ccc(S(=O)(=O)Nc2c(C)nn(C)c2C)cc1C`, for which the solubility (kinetic) is more than 44 µg/mL. As to `Cc1ccc2[nH]c(C)c(CCNCc3ccco3)c2c1.Cl`, the solubility (kinetic) came to 42.9 µg/mL. In the case of `O=C(COC(=O)c1cccnc1Cl)NCCc1ccc(F)cc1`, the solubility (kinetic) is more than 50.5 µg/mL. As for `O=C(CCc1ccc(S(=O)(=O)N2CCOCC2)cc1)OCC(=O)c1ccc(Br)cc1`, the figure is 6.7 µg/mL (≈ 13.5 µM); as for `CC(C)(C)NC(=O)COc1ccc(CNCc2ccccn2)cc1.Cl`, more than 54.6 µg/mL. Consider `On1c(-c2ccccc2)nc2ccccc21`, for which the kinetic solubility is more than 31.5 µg/mL. `Cc1cc(C)c(NC(=O)COC(=O)C2CCC(=O)N2)c(C)c1` (stereo not given): the solubility (kinetic) is more than 45.7 µg/mL. On to `COc1ccc(-c2cc(=O)[nH]c3ccccc23)cc1`, for which the solubility (kinetic) is 4.6 µg/mL (≈ 18.3 µM).

The compound `CC(C)(C)N1C(=O)c2ccc(C(=O)Nc3cc(C(=O)O)cc(C(=O)O)c3)cc2C1=O` had a kinetic solubility of 51.5 µg/mL (≈ 125 µM).

Take `CCOC(=O)c1ccc(C(=S)N2CCCC2)cc1`: the solubility (kinetic) came out at 37.3 µg/mL (≈ 142 µM). `Fc1ccc(SCCc2ccccn2)cc1` had a solubility (kinetic) of 7.1 µg/mL (≈ 30.4 µM). The compound `COc1ccc(OC)c2nc(-c3cccnc3)ccc12` came in with a solubility (kinetic) of more than 39.9 µg/mL. `CCOC(=O)C1(CC2CC2)CCN(C(=O)c2cccnc2C)CC1` came in with a kinetic solubility of more than 49.6 µg/mL. The figure for `CCOP(=O)(OCC)/C(C#N)=C(\O)c1ccc(OC)cc1` is more than 46.7 µg/mL; for `CCOC(=O)C(C)Oc1ccc(NC(=O)C(Cl)Cl)cc1` (stereo not given) it is more than 48 µg/mL. `CC(CN1CCCCC1)NC(=O)c1cccs1` (stereo not given) registered a kinetic solubility of more than 37.9 µg/mL.

In turn, `COc1cc(SC)ccc1C(=O)N(Cc1ccccc1)c1ccccc1` showed a kinetic solubility of 6.3 µg/mL (≈ 17.3 µM). As for `CCn1c(NC(=O)C(C)C)c(-c2ccccc2)c(=O)c2ccccc21`, the figure is 30.9 µg/mL (≈ 92.4 µM); as for `COC(=O)c1scc(C)c1NC(=O)c1ccc(Cl)cc1`, 21.3 µg/mL (≈ 68.8 µM); as for `Cc1cc2oc(C(=O)N3CCN(Cc4ccccc4)CC3)c(C)c2cc1C`, 3.7 µg/mL (≈ 10.2 µM). In turn, `Cc1ccc(Nc2ccccc2N)cc1` displayed a kinetic solubility of 23.1 µg/mL (≈ 117 µM). Compared with the last compound, the solubility kinetic is about 6.2-fold higher. The figure for `O=c1c2ccccc2nc(/C=C/c2ccc(Cl)cc2)n1CCO` is 1.3 µg/mL (≈ 3.98 µM). The figure for `O=[N+]([O-])c1cccc(-c2nnc(SCc3cccnc3)o2)c1` is more than 47.1 µg/mL. `COc1cccc(NC(=O)CNC(=O)c2ccc([N+](=O)[O-])cc2)c1` yielded a solubility (kinetic) of 2.9 µg/mL (≈ 8.81 µM).

For the compound `CC1SCC(NC(=O)c2cccc(Cl)c2)CS1` (stereo not given), the solubility (kinetic) was more than 43.2 µg/mL.

Turning to `O=C1CNC(=O)/C(=C\c2ccccc2)N1`, the kinetic solubility is more than 30.3 µg/mL.

Compound `CCOC(=O)N1CCc2c(sc3ncn(C)c(=O)c23)C1` displayed a solubility (kinetic) of 36.7 µg/mL (≈ 125 µM).

Compound `COc1cccc(C=O)c1OC(=O)N1CCOCC1` registered a kinetic solubility of more than 39.8 µg/mL. As for `Cn1ccnc1SCC(=O)NCC(=O)Nc1ccc(F)c(F)c1F`, the figure is more than 53.7 µg/mL; as for `CCCCCn1c(N)c(C(=O)NCc2cccs2)c2nc3ccccc3nc21`, 0.9 µg/mL (≈ 2.29 µM).

These data come from PubChem BioAssay AID1996.
